Assay results taken from article PMC8213057, “Targeting ALK2: An Open Science Approach to Developing Therapeutics for the Treatment of Diffuse Intrinsic Pontine Glioma” (Journal of Medicinal Chemistry, 2020).

How the values were obtained:
RIPK3 = RIPK3 (Homo sapiens, UniProt Q9Y572); test: biochemical; conditions: read-out: % enzyme activity, 1 μM; Run 1, Run 2
BMX/ETK = target: T1, BMX/ETK (Homo sapiens, UniProt P51813); conditions: 1 μM; Run 1, Run 2
T1 sequence (P51813 1-675): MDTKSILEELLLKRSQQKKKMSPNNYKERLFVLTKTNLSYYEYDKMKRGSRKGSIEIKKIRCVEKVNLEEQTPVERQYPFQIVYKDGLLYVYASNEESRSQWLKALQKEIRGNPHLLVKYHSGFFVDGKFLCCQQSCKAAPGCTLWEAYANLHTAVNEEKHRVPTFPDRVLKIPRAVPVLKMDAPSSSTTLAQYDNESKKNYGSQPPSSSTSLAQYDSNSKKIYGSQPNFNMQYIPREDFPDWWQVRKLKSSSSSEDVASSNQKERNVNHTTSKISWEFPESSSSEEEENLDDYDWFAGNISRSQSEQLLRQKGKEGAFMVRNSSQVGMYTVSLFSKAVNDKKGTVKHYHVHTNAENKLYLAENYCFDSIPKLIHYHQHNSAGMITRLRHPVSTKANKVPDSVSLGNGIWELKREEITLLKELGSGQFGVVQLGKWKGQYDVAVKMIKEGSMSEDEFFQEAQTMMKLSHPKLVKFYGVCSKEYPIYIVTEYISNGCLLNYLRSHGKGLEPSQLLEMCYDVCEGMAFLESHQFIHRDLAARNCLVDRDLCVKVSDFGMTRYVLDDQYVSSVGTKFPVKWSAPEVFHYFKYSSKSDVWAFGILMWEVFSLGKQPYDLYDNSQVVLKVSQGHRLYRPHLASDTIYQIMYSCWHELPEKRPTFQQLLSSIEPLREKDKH

PKCd [1] = target: T2, PKCd (Homo sapiens, UniProt Q05655); test: biochemical; conditions: read-out: % enzyme activity, 1 μM; Run 1, Run 2
T2 sequence (Q05655 whole entry): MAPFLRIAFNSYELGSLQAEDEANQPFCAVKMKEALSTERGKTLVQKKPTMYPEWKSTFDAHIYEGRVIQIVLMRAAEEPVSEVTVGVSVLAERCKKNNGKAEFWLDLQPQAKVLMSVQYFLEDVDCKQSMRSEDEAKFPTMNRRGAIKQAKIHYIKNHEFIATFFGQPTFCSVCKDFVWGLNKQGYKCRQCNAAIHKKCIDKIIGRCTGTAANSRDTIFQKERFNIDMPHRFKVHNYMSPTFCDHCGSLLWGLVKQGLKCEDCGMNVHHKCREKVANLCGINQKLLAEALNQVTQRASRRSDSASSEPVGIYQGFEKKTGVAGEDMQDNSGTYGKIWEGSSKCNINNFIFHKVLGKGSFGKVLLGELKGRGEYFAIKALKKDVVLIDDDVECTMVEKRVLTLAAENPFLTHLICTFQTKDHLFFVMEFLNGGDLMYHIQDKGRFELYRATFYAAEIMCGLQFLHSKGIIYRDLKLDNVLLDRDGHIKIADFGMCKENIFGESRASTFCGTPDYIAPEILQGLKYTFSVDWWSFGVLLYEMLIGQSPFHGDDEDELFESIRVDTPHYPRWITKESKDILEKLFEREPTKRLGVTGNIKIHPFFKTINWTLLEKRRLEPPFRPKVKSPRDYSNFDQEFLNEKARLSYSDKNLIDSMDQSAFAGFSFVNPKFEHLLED

CK1a1 = CK1a1 (Homo sapiens, UniProt P48729); test: biochemical; conditions: read-out: % enzyme activity, 1 μM; Run 1, Run 2
CK1a1, sequence (P48729 whole entry): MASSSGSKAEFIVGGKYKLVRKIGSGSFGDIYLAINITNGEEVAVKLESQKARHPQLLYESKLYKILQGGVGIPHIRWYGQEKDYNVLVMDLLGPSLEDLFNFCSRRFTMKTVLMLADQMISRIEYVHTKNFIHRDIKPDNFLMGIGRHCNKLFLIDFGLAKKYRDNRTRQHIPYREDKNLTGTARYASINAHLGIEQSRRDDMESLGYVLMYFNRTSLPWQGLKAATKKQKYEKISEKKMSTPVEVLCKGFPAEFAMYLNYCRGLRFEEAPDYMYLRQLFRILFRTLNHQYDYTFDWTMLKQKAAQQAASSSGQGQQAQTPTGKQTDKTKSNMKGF

EPHA4 = EPHA4 (Homo sapiens, UniProt P54764); conditions: 1 μM; Run 1, Run 2
TYK2 = TYK2 (Homo sapiens, UniProt P29597); conditions: 1 μM; Run 1, Run 2
MSSK1/STK23 = MSSK1/STK23 (Homo sapiens, UniProt Q9UPE1); conditions: 1 μM; Run 1, Run 2
MSSK1/STK23, sequence (Q9UPE1 whole entry): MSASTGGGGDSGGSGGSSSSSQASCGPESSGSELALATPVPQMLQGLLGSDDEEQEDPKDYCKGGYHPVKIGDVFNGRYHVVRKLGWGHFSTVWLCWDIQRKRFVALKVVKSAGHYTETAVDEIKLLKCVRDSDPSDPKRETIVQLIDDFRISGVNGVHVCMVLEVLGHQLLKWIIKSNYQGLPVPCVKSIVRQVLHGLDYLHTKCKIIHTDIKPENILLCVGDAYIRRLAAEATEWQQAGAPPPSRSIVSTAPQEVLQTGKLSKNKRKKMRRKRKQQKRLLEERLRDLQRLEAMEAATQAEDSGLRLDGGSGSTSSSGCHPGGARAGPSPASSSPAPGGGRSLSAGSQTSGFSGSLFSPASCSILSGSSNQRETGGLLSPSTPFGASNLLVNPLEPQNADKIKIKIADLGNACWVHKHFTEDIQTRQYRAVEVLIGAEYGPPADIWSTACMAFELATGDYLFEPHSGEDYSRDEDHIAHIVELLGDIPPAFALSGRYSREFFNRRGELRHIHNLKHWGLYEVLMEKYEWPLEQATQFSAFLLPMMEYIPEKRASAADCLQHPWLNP

PKCd [2] = target: T2, PKCd; conditions: 1 μM; Run 1, Run 2
RSK4 = RSK4 (Homo sapiens, UniProt Q9UK32); test: biochemical; conditions: read-out: % enzyme activity, 1 μM; Run 1, Run 2
Haspin = target: T3, Haspin (Homo sapiens, UniProt Q8TF76); conditions: 1 μM; Run 1, Run 2
T3 sequence (Q8TF76 1-798): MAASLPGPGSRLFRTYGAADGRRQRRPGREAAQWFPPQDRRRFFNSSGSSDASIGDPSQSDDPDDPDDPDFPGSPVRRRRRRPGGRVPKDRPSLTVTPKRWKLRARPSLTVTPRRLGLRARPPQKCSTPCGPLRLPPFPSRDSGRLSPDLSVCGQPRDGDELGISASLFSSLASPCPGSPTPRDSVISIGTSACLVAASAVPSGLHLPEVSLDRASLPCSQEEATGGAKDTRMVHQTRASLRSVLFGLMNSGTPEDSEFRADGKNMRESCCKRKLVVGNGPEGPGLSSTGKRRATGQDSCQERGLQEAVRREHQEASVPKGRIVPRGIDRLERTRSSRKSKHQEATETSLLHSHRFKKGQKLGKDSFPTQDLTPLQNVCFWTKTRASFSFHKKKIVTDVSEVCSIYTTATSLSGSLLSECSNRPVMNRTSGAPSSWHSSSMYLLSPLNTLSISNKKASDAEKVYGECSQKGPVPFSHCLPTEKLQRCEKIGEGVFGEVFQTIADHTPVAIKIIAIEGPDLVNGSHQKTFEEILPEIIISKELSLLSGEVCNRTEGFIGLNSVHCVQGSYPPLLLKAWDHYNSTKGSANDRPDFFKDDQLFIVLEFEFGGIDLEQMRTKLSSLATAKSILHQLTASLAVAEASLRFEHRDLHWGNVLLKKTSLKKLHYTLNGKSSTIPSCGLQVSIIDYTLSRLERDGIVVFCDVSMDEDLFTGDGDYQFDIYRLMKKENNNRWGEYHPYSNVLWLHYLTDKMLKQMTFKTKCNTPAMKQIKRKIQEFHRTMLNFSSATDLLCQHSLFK

CDK1/cyclin A = CDK1/cyclin A (Homo sapiens, UniProt P06493); test: biochemical; conditions: read-out: % enzyme activity, 1 μM; Run 1, Run 2
EPHA2 = EPHA2 (Homo sapiens, UniProt P29317); conditions: 1 μM; Run 1, Run 2
EPHA2, sequence (P29317 24-976): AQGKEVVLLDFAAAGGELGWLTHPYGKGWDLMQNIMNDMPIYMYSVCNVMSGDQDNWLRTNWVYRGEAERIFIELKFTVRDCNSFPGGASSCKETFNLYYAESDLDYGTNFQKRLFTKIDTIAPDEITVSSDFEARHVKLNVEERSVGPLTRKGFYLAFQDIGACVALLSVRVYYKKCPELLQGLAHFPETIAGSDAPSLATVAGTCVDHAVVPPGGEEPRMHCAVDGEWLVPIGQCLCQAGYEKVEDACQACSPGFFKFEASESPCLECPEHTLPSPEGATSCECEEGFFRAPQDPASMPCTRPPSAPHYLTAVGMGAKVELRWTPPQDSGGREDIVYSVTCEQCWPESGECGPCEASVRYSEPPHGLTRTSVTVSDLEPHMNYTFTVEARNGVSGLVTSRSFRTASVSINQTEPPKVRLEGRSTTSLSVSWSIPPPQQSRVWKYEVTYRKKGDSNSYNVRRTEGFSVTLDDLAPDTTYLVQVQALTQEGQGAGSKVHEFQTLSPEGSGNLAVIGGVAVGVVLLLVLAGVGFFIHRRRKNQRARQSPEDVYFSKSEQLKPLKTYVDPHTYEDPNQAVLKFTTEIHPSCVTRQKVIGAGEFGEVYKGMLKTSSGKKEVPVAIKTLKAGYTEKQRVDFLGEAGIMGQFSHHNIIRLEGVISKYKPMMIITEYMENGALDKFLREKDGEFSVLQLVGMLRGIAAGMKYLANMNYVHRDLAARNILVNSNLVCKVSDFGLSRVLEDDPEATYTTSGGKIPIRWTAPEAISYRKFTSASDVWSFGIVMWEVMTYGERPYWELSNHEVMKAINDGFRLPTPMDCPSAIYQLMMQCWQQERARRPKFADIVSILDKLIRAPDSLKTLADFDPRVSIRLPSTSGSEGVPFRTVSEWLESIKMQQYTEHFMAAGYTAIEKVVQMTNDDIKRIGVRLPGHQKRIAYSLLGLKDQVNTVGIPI

CDK9/cyclin T1 = CDK9/cyclin T1 (Homo sapiens, UniProt P50750); test: biochemical; conditions: read-out: % enzyme activity, 1 μM; Run 1, Run 2
CDK9/cyclin T1, sequence (P50750 whole entry): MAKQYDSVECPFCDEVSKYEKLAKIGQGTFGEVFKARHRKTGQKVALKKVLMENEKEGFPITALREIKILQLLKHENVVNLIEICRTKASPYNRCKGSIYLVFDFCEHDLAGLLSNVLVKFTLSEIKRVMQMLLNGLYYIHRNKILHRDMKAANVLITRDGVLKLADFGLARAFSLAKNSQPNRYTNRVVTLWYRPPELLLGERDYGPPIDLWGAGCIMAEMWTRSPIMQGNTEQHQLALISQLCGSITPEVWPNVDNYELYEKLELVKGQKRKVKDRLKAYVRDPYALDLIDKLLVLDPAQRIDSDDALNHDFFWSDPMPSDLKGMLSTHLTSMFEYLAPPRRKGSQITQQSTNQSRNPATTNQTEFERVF
CDK9/cyclin T1, sequence (O60563 whole entry partner): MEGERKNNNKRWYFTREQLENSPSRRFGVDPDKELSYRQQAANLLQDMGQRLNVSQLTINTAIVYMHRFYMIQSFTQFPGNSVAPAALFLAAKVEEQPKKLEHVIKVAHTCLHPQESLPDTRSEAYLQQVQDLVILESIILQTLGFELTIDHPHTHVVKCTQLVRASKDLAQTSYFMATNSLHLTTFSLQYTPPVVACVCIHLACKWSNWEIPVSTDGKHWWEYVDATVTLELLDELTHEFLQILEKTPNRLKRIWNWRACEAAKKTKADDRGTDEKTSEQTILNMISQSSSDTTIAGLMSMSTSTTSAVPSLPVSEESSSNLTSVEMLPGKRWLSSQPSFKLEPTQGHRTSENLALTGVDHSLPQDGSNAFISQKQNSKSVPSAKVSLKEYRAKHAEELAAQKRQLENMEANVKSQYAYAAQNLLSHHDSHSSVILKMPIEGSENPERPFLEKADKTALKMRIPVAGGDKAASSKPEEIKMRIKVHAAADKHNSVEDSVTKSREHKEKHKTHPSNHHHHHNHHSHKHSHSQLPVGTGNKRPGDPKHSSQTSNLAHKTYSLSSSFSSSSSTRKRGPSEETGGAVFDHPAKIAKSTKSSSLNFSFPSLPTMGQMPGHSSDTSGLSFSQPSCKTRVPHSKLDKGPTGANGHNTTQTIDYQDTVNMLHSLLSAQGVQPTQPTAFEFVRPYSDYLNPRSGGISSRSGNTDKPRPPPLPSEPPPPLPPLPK

TAK1 = target: T4, TAK1 (Homo sapiens, UniProt O43318); test: biochemical; conditions: read-out: % enzyme activity, 1 μM; Run 1, Run 2
T4 sequence (O43318 1-303 limits assumed): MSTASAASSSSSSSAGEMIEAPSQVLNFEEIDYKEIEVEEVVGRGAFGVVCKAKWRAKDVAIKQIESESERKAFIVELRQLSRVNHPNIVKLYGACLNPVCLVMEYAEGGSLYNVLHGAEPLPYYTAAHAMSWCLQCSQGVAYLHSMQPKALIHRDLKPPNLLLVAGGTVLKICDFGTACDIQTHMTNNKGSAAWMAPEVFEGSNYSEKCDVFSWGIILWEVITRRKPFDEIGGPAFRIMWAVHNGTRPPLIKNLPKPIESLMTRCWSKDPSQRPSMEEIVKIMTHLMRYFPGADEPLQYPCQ

ALK3/BMPR1A = target: T5, ALK3/BMPR1A (Homo sapiens, UniProt P36894); test: 375-member kinase panel; assay type: biochemical; conditions: Run 1, Run 2; for % enzyme activity: 1 μM; for remaining activity at 1 µM: read-out: % enzyme activity, 1 μM
T5 construct: purchased Reaction Biology Corporation
T5 sequence (P36894 24-532): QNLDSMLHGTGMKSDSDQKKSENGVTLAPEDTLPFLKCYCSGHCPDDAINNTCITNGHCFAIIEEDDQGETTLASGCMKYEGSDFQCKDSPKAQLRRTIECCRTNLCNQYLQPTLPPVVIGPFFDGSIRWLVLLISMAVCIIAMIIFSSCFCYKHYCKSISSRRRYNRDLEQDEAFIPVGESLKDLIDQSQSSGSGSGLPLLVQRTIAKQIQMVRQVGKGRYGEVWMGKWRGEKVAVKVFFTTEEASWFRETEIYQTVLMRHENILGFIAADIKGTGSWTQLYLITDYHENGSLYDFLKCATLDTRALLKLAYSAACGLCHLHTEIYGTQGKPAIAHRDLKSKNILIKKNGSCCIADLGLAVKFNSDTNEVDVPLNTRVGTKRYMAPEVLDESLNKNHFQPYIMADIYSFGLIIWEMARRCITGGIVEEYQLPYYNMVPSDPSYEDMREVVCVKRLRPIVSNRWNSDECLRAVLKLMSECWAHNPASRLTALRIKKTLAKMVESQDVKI

RIPK3, sequence (Q9Y572 whole entry): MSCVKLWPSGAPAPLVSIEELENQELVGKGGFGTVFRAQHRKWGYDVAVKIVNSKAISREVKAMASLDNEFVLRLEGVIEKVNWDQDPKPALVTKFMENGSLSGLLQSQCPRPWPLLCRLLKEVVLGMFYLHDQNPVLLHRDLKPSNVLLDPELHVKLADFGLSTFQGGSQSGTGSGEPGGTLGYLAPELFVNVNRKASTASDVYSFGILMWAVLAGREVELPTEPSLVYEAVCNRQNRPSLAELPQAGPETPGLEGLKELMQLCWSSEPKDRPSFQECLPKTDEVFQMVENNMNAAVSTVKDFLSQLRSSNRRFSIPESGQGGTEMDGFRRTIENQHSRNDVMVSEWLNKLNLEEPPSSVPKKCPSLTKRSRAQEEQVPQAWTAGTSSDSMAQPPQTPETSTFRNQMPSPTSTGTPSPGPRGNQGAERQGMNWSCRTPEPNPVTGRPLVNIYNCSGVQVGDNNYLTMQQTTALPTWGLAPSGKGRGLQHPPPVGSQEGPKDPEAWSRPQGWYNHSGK

Structure (SMILES) | remaining activity at 1 µM (RIPK3) | % enzyme activity (BMX/ETK) | remaining activity at 1 µM (PKCd [1]) | remaining activity at 1 µM (CK1a1) | % enzyme activity (EPHA4) | % enzyme activity (TYK2) | % enzyme activity (MSSK1/STK23) | % enzyme activity (PKCd [2]) | remaining activity at 1 µM (RSK4) | % enzyme activity (Haspin) | remaining activity at 1 µM (CDK1/cyclin A) | % enzyme activity (EPHA2) | CYP inhibition (CYP2B6) | remaining activity at 1 µM (CDK9/cyclin T1) | remaining activity at 1 µM (TAK1) | % enzyme activity (ALK3/BMPR1A) | remaining activity at 1 µM (ALK3/BMPR1A)
COc1cc(-c2cncc(-c3ccc(N4CCN(C)CC4)cc3)c2C)cc(F)c1C(N)=O [Compound 26a, 2-Fluoro-6-methoxy-4-(4-methyl-5-(4-(4-methylpiperazin-1-yl)phenyl)pyridin-3-yl)benzamide] | 106% | 102.04% | 99% | 96.1% | 91.81% | 91.37% | 98.71% | 97.72% | 96% | 82.77% | 94.7% | 97.38% | > 50 µM | 90.8% | 98.5% | 40.21% | 38.4%
COc1cc(-c2cncc(-c3ccc(N4C[C@@H](C)N(C)[C@@H](C)C4)cc3)c2C)cc(F)c1C(N)=O [Compound 26c, 2-Fluoro-6-methoxy-4-(4-methyl-5-(4-((3R,5S)-3,4,5-trimethylpiperazin-1-yl)phenyl)pyridin-3-yl)benzamide] | 104% | 100.72% | 101% | 100% | 98.76% | 99.47% | 99.23% | 100.12% | 95.5% | 82.31% | 90.8% | 104.56% | > 50 µM | 97.1% | 99.1% | 50.46% | 50%
